Literature values as cited in US20150209404A1, “CELLULAR BLOOD MARKERS FOR EARLY DIAGNOSIS OF ALS AND FOR ALS PROGRESSION” (YEDA RESEARCH AND DEVELOPMENT CO. LTD., priority 2010, published 2015).

Settings: ALS patients; Copaxone given daily; both drugs effective in treating MS

Substance: glatiramer acetate [Copaxone]
- outcome of treatment in ALS: failed and were even detrimental
